Reference: patent EP4755888A1 (ILAb Co., Ltd., priority 2023, dated 2025)

Molecular target: PD-1/PD-L1 (Homo sapiens, UniProt Q9NZQ7)
Assay: TR-FRET PD-1/PD-L1 binding inhibition at the molecular level (free proteins)
Conditions: Tag1-PD-L1 and Tag2-PD-1 proteins, twelve concentrations from 200 nM, 2 hours at room temperature, read-out: FRET assay (IC50)
In short: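 HTRF read-out at 665/620 nm after 2 h at room temperature. Detection used anti-Tag1 Eu cryptate plus anti-Tag2 XL665 antibodies. Tagged PD-L1 and PD-1 proteins were pre-mixed with compound across twelve […] 1:2 dilutions starting at 200 nM.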

PD-1/PD-L1, sequence (Q9NZQ7 19-238 limits assumed): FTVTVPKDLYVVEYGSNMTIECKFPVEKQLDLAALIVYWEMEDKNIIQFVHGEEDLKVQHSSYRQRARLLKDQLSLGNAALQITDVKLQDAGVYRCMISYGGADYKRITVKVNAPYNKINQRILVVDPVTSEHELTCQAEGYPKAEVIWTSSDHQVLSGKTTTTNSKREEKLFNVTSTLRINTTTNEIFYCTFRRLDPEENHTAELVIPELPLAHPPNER

| Compound | IC50 [nM] |
| --- | --- |
| COc1cc(-c2cccc(-c3cccc(NC(=O)c4cc5n(n4)CCCC5N4CC[C@@H](O)C4)c3Cl)c2Cl)cc(F)c1CN1CC[C@@H](O)C1 (stereo partly drawn) [Compound 123, N-(2,2'-dichloro-3"-fluoro-4"-(((R)-3-hydroxypyrrolidin-1-yl)methyl)-5"-methoxy-[1,1':3',1 "-terphenyl]-3-yl)-4-((R)-3-hydroxypyrrolidin-1-yl)-4,5,6,7-tetrahydropyrazolo[1,5-a]pyridine-2-carboxamide] | < 10 |
| CN[C@@H]1CCCn2nc(C(=O)Nc3cccc(-c4cccc(Nc5nccc6cc(CN7CC[C@@H](O)C7)cnc56)c4C)c3C)cc21 [Compound 347, (R)-N-(3'-((3-(((R)-3-hydroxypyrrolidin-1-yl)methyl)-1,7-naphthyridin-8-yl)amino)-2,2'-dimethyl-[1,1'-biphenyl]-3-yl)-4-(methylamino)-4,5,6,7-tetrahydropyrazolo[1,5-a]pyridine-2-carboxamide] | < 10 |
| O=C(O)CNC1CCCn2nc(-c3cccc(-c4cccc(Nc5nccc6cc(CN7CC[C@@H](O)C7)cnc56)c4Cl)c3Cl)cc21 (stereo partly drawn) [Compound 185, 2-((2-(2,2'-dichloro-3'-((3-(((R)-3-hydroxypyrrolidin-1-yl)methyl)-1,7-naphthyridin-8-yl)amino)-[1,1'-biphenyl]-3-yl)-4,5,6,7-tetrahydropyrazolo[1,5-a]pyridin-4-yl)amino)acetic acid] | < 10 |
| O=C(Nc1cccc(-c2cccc(Nc3nc(C(F)F)nc4cc(CN5CC[C@@H](O)C5)cnc34)c2Cl)c1Cl)c1cc2n(n1)CCCC2N1CC[C@@H](O)C1 (stereo partly drawn) [Compound 140, N-(2,2'-dichloro-3'-((2-(difluoromethyl)-7-(((R)-3-hydroxypyrrolidin-1-yl)methyl)pyrido[3,2-d]pyrimidin-4-yl)amino)-[1,1'-biphenyl]-3-yl)-4-((R)-3-hydroxypyrrolidin-1-yl)-4,5,6,7-tetrahydropyrazolo[1,5-a]pyridine-2-carboxamide] | 10 to 100 |
| COc1nc(-c2cccc(-c3cccc(-c4cc5n(n4)CCCC5NCCO)c3Cl)c2Cl)cnc1CNC[C@@H]1CCC(=O)N1 (stereo partly drawn) [Compound 168, (5S)-5-((((5-(2,2'-dichloro-3'-(4-((2-hydroxyethyl)amino)-4,5,6,7-tetrahydropyrazolo[1,5-a]pyridin-2-yl)-[1,1'-biphenyl]-3-yl)-3-methoxypyrazin-2-yl)methyl)amino)methyl)pyrrolidin-2-one] | < 10 |
| COc1nc(-c2cccc(-c3cccc(-c4cc5n(n4)CCCC5N4CC[C@@H](O)C4)c3C)c2C)cnc1CNC[C@@H]1CCC(=O)N1 (stereo partly drawn) [Compound 164, (5S)-5-((((5-(3'-(4-((R)-3-hydroxypyrrolidin-1-yl)-4,5,6,7-tetrahydropyrazolo[1,5-a]pyridin-2-yl)-2,2'-dimethyl-[1,1'-biphenyl]-3-yl)-3-methoxypyrazin-2-yl)methyl)amino)methyl)pyrrolidin-2-one] | 10 to 100 |
| Cc1c(NC(=O)c2cc3n(n2)CCCC3N2CC[C@@H](O)C2)cccc1-c1cccc(Nc2nc(C(F)F)nc3cc(CN4CC[C@@H](O)C4)cnc23)c1C (stereo partly drawn) [Compound 131, N-(3'-((2-(difluoromethyl)-7-(((R)-3-hydroxypyrrolidin-1-yl)methyl)pyrido[3,2-d]pyrimidin-4-yl)amino)-2,2'-dimethyl-[1,1'-biphenyl]-3-yl)-4-((R)-3-hydroxypyrrolidin-1-yl)-4,5,6,7-tetrahydropyrazolo[1,5-a]pyridine-2-carboxamide] | < 10 |
| O=C(Nc1cccc(-c2cccc(Nc3nccc4nccnc34)c2Cl)c1Cl)c1cc2n(n1)CCC[C@@H]2N1CCC(C(=O)O)CC1 [Compound 257, (S)-1-(2-((2,2'-dichloro-3'-(pyrido[3,4-b]pyrazin-5-ylamino)-[1,1'-biphenyl]-3-yl)carbamoyl)-4,5,6,7-tetrahydropyrazolo[1,5-a]pyridin-4-yl)piperidine-4-carboxylic acid] | 10 to 100 |
| Cc1c(NC(=O)c2cc3c(NC(C)(C)C(=O)O)cccn3n2)cccc1-c1cccc(Nc2nccc3cc(CN4CC[C@@H](O)C4)cnc23)c1C [Compound 17, (R)-2-((2-((3'-((3-((3-hydroxypyrrolidin-1-yl)methyl)-1,7-naphthyridin-8-yl)amino)-2,2'-dimethyl-[1,1'-biphenyl]-3-yl)carbamoyl)pyrazolo[1,5-a]pyridin-4-yl)amino)-2-methylpropanoic acid] | < 10 |
| Cc1c(Nc2nccc3cc(CN4CC[C@@H](O)C4)cnc23)cccc1-c1cccc(-c2cc3n(n2)CCCC3NC[C@@H]2CCC(=O)N2)c1C (stereo partly drawn) [Compound 176, (5S)-5-(((2-(3'-((3-(((R)-3-hydroxypyrrolidin-1-yl)methyl)-1,7-naphthyridin-8-yl)amino)-2,2'-dimethyl-[1,1'-biphenyl]-3-yl)-4,5,6,7-tetrahydropyrazolo[1,5-a]pyridin-4-yl)amino)methyl)pyrrolidin-2-one] | 10 to 100 |

Continued, values first:

| IC50 [nM] | Compound |
| --- | --- |
| < 10 | COc1cc(-c2cccc(-c3cccc(NC(=O)c4cc5n(n4)CCC[C@H]5NCC(=O)O)c3Cl)c2Cl)cc(F)c1CN1CC[C@@H](O)C1 [Compound 248, 2-(((R)-2-((2,2'-dichloro-3"-fluoro-4"-(((R)-3-hydroxypyrrolidin-1-yl)methyl)-5"-methoxy-[1,1':3',1"-terphenyl]-3-yl)carbamoyl)-4,5,6,7-tetrahydropyrazolo[1,5-a]pyridin-4-yl)amino)acetic acid] |
| < 10 | Cc1c(NC(=O)c2cc3n(n2)CCCC3NCCO)cccc1-c1cccc(Nc2nccc3cc(CN4CC[C@@H](O)C4)cnc23)c1C (stereo partly drawn) [Compound 14, 4-((2-hydroxyethyl)amino)-N-(3'-((3-(((R)-3-hydroxypyrrolidin-1-yl)methyl)-1,7-naphthyridin-8-yl)amino)-2,2'-dimethyl-[1,1'-biphenyl]-3-yl)-4,5,6,7-tetrahydropyrazolo[1,5-a]pyridine-2-carboxamide] |
| < 10 | CC(=O)NCCNC1CCCn2nc(C(=O)Nc3cccc(-c4cccc(-c5nc6cc(CN7CC[C@@H](C(=O)O)C7)cc(C#N)c6o5)c4C)c3C)cc21 (stereo partly drawn) [Compound 62, (3R)-1-((2-(3'-(4-((2-acetamidoethyl)amino)-4,5,6,7-tetrahydropyrazolo[1,5-a]pyridine-2-carboxamido)-2,2'-dimethyl-[1,1'-biphenyl]-3-yl)-7-cyanobenzo[d]oxazol-5-yl)methyl)pyrrolidine-3-carboxylic acid] |
| < 10 | CC(=O)NCCN[C@H]1CCCn2nc(C(=O)Nc3cccc(-c4cccc(NC(=O)c5ccc(CNCCO)cn5)c4Cl)c3Cl)cc21 [Compound 241, (S)-4-((2-acetamidoethyl)amino)-N-(2,2'-dichloro-3'-(5-(((2-hydroxyethyl)amino)methyl)picolinamido)-[1,1'-biphenyl]-3-yl)-4,5,6,7-tetrahydropyrazolo[1,5-a]pyridine-2-carboxamide] |
| < 10 | O=C(O)CNC1CCCn2nc(C(=O)Nc3cccc(-c4cccc(NC(=O)c5ccc(CNCCO)cn5)c4Cl)c3Cl)cc21 (stereo not drawn) [Compound 89, 2-((2-((2,2'-dichloro-3'-(5-(((2-hydroxyethyl)amino)methyl)picolinamido)-[1,1'-biphenyl]-3-yl)carbamoyl)-4,5,6,7-tetrahydropyrazolo[1,5-a]pyridin-4-yl)amino)acetic acid] |
| 10 to 100 | O=C(O)CN[C@H]1CCCn2nc(C(=O)Nc3cccc(-c4cccc(Nc5nc(C(F)F)nc6cc(CN7CC[C@@H](O)C7)cnc56)c4Cl)c3Cl)cc21 [Compound 293, 2-(((S)-2-((2,2'-dichloro-3'-((2-(difluoromethyl)-7-(((R)-3-hydroxypyrrolidin-1-yl)methyl)pyrido[3,2-d]pyrimidin-4-yl)amino)-[1,1'-biphenyl]-3-yl)carbamoyl)-4,5,6,7-tetrahydropyrazolo[1,5-a]pyridin-4-yl)amino)acetic acid] |
| 10 to 100 | CC(C)(N[C@H]1CCCn2nc(C(=O)Nc3cccc(-c4cccc(Nc5nccc6nccnc56)c4Cl)c3Cl)cc21)C(=O)O [Compound 260, (S)-2-((2-((2,2'-dichloro-3'-(pyrido[3,4-b]pyrazin-5-ylamino)-[1,1'-biphenyl]-3-yl)carbamoyl)-4,5,6,7-tetrahydropyrazolo[1,5-a]pyridin-4-yl)amino)-2-methylpropanoic acid] |
| < 10 | Cc1c(NC(=O)c2ccc(CN3CC[C@@H](O)C3)cn2)cccc1-c1cccc(NC(=O)c2cc3n(n2)CCCC3NCC(=O)O)c1C (stereo partly drawn) [Compound 95, 2-((2-((3'-(5-(((R)-3-hydroxypyrrolidin-1-yl)methyl)picolinamido)-2,2'-dimethyl-[1,1'-biphenyl]-3-yl)carbamoyl)-4,5,6,7-tetrahydropyrazolo[1,5-a]pyridin-4-yl)amino)acetic acid] |
| < 10 | Cc1c(NC(=O)c2ccc(CN3CC[C@@H](O)C3)cn2)cccc1-c1cccc(NC(=O)c2cc3n(n2)CCC[C@@H]3N2CCCC[C@@H]2CO)c1C [Compound 309, (S)-4-((R)-2-(hydroxymethyl)piperidin-1-yl)-N-(3'-(5-(((R)-3-hydroxypyrrolidin-1-yl)methyl)picolinamido)-2,2'-dimethyl-[1,1'-biphenyl]-3-yl)-4,5,6,7-tetrahydropyrazolo[1,5-a]pyridine-2-carboxamide] |
| 10 to 100 | CC(=O)NCCNC1CCCn2nc(C(=O)Nc3cccc(-c4cccc(-c5nc6c(s5)CCN(C)C6)c4C)c3C)cc21 (stereo not drawn) [Compound 152, 4-((2-acetamidoethyl)amino)-N-(2,2'-dimethyl-3'-(5-methyl-4,5,6,7-tetrahydrothiazolo[4,5-c]pyridin-2-yl)-[1,1'-biphenyl]-3-yl)-4,5,6,7-tetrahydropyrazolo[1,5-a]pyridine-2-carboxamide] |
| < 10 | O=C1CC[C@@H](CNCc2ccc(-c3cccc(-c4cccc(NC(=O)c5cc6n(n5)CCCC6O)c4Cl)c3Cl)cc2)N1 (stereo partly drawn) [Compound 111, N-(2,2'-dichloro-4"-(((((S)-5-oxopyrrolidin-2-yl)methyl)amino)methyl)-[1,1':3',1"-terphenyl]-3-yl)-4-hydroxy-4,5,6,7-tetrahydropyrazolo[1,5-a]pyridine-2-carboxamide] |
